For this assay, the target named is T1, recombinant human ALX receptor (Homo sapiens, UniProt P25090).
T1 construct: expressed in transfected cells; host or cells: HEK293 (HEK293-hALXR-Gα16)
T1 sequence (P25090 1-351): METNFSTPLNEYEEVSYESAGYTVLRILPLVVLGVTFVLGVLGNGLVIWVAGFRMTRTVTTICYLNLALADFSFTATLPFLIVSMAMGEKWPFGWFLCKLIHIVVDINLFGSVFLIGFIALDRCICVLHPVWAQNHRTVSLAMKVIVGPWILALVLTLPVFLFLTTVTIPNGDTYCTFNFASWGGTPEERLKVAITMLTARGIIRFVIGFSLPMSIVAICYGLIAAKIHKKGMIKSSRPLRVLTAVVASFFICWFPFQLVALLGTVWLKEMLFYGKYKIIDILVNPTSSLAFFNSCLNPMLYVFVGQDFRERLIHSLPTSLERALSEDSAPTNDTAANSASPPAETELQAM
Put plainly: Intracellular calcium measurements (FLIPR), ALX receptor agonistic activity. The assay is classed as cell-based. The following applies: HEK293-hALXR-Gα16 cells, Fluo-4 calcium signal, normalized to WKYMVm 10 nM. In outline: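 Agonist-induced calcium flux was read by FLIPR (488/540 nm) as baseline-subtracted peak emission, expressed relative to WKYMVm at 10 nM final. Cells used: HEK293-hALXR-Gα16, dye-loaded 60 min at 37° C. with 1 μM Fluo-4 AM before compound dose-response addition.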
A general note: Calcium flux is commonly read through the fluorescence of an indicator in the cells.

Usually EC50 stands for the concentration giving half of the maximal effect. Consider `COc1ccc(C[C@@H](NC(=O)NC2CC(C)(C)NC(C)(C)C2)c2nc3ccc(C#N)cc3[nH]2)cc1` [Example 153, (R)-1-(1-(6-Cyano-1H-benzo[d]imidazol-2-yl)-2-(4-methoxyphenyl)ethyl)-3-(2,2,6,6-tetramethylpiperidin-4-yl)urea], for which the concentration giving a half-maximal response (EC50) is 8.7 nM.

In the case of `COc1ccc(C[C@@H](NC(=O)N2CCC3C2CCN3C(=O)OC(C)(C)C)c2nc3ccccc3[nH]2)cc1` (stereo partly drawn) [Example 121, tert-Butyl 4-(((R)-1-(1H-benzo[d]imidazol-2-yl)-2-(4-methoxyphenyl)ethyl)carbamoyl)hexahydropyrrolo[3,2-b]pyrrole-1 (2H)-carboxylate], the EC50 amounted to 704 nM.

For the compound `COc1cc(F)c(CC(NC(=O)NC23CCC(O)(CC2)CC3)c2nc3ccccc3[nH]2)c(F)c1` (stereo not shown) [Example 248, 1-(1-(1H-Benzo[d]imidazol-2-yl)-2-(2,6-difluoro-4-methoxyphenyl)ethyl)-3-(4-hydroxybicyclo[2.2.2]octan-1-yl)urea], the EC50 is 4.5 nM.

For the compound `COc1cc(F)c(CC(NC(=O)N[C@H]2CC[C@H](O)CC2)c2nc3ccccc3[nH]2)c(F)c1` (relative stereo) [Example 235, 1-(1-(1H-Benzo[d]imidazol-2-yl)-2-(2,6-difluoro-4-methoxyphenyl)ethyl)-3-(trans-4-hydroxycyclohexyl)urea], the concentration for a half-maximal effect (EC50) came to 3.2 nM.

Turning to `COc1ccc(C[C@@H](NC(=O)NC[C@H](O)c2ccccc2)c2nc3ccccc3[nH]2)cc1` [Example 290, 1-((R)-1-(1H-Benzo[d]imidazol-2-yl)-2-(4-methoxyphenyl)ethyl)-3-((R)-2-hydroxy-2-phenylethyl)urea], the half-maximal effective concentration (EC50) came out at 37 nM.

In the case of `COc1ccc(C[C@@H](NC(=O)NC2(c3ccc(C)cc3)CC2)c2nc3ccccc3[nH]2)cc1` [Example 277, (R)-1-(1-(1H-Benzo[d]imidazol-2-yl)-2-(4-methoxyphenyl)ethyl)-3-(1-(p-tolyl)cyclopropyl)urea], the concentration for a half-maximal effect (EC50) is 82 nM.

For `COc1ccc(C[C@@H](NC(=O)N[C@H]2CC[C@H](O)CC2)c2nc3cc(Br)ccc3[nH]2)cc1` [Example 179, 1-((R)-1-(5-Bromo-1H-benzo[d]imidazol-2-yl)-2-(4-methoxyphenyl)ethyl)-3-(trans-4-hydroxycyclohexyl)urea], the EC50 was 1.1 nM.

With `COc1ccc(C[C@@H](NC(=O)N2CCN(C)CC2)c2nc3ccccc3[nH]2)cc1` [Example 136, (R)—N-(1-(1H-Benzo[d]imidazol-2-yl)-2-(4-methoxyphenyl)ethyl)-4-methylpiperazine-1-carboxamide], the concentration for a half-maximal effect (EC50) came to 387 nM.

`COc1ccc(C[C@@H](NC(=O)NCCN2CCc3ccccc3C2)c2nc3ccccc3[nH]2)cc1` [Example 297, (R)-1-(1-(1H-Benzo[d]imidazol-2-yl)-2-(4-methoxyphenyl)ethyl)-3-(2-(3,4-dihydroisoquinolin-2(1H)-yl)ethyl)urea]: the EC50 turned out to be 217 nM.

`COc1ccc(C[C@@H](NC(=O)N[C@H](C)[C@@H](O)c2ccccc2)c2nc3ccccc3[nH]2)cc1` [Example 209, 1-((R)-1-(1H-Benzo[d]imidazol-2-yl)-2-(4-methoxyphenyl)ethyl)-3-((1S,2R)-1-hydroxy-1-phenylpropan-2-yl)urea]: the concentration giving a half-maximal response (EC50) was 1.5 nM.

With `COc1cc(F)c(CC(NC(=O)NC23CCC(O)(CC2)CC3)c2nc3ccccc3[nH]2)c(F)c1` (single isomer, unassigned; ent-1) [Example 259, 1-(1-(1H-Benzo[d]imidazol-2-yl)-2-(2,6-difluoro-4-methoxyphenyl)ethyl)-3-(4-hydroxybicyclo[2.2.2]octan-1-yl)urea (ent-1)], the concentration for a half-maximal effect (EC50) stood at 0.5 nM.

`COc1ccc(C[C@@H](NC(=O)N[C@@H]2CCC[C@H]2O)c2nc3ccccc3[nH]2)cc1` [Example 113, 1-((R)-1-(1H-Benzo[d]imidazol-2-yl)-2-(4-methoxyphenyl)ethyl)-3-((1R,2R)-2-hydroxycyclopentyl)urea]: the concentration for a half-maximal effect (EC50) was determined as 20 nM.

Consider `COc1ccc(C[C@@H](NC(=O)NCCN2CCN(C(=O)OC(C)(C)C)CC2)c2nc3ccccc3[nH]2)cc1` [Example 144, (R)-tert-Butyl 4-(2-(3-(1-(1H-benzo[d]imidazol-2-yl)-2-(4-methoxyphenyl)ethyl)ureido)ethyl)piperazine-1-carboxylate], for which the half-maximal effective concentration (EC50) was found to be 947 nM.

Regarding `COc1ccc(CC(NC(=O)NC23CCC(O)(CC2)CC3)c2nc3ccc(F)cc3[nH]2)cc1F` (single isomer, unassigned; ent-2) [Example 372, 1-(1-(6-Fluoro-1H-benzo[d]imidazol-2-yl)-2-(3-fluoro-4-methoxyphenyl)ethyl)-3-(4-hydroxybicyclo[2.2.2]octan-1-yl)urea (ent-2)], the EC50 came out at 769 nM.

In the case of `COc1ccc(CC(NC(=O)N[C@H]2CC[C@](C)(O)CC2)c2nc3ccccc3[nH]2)cc1F` (relative stereo) [Example 226, 1-(1-(1H-Benzo[d]imidazol-2-yl)-2-(3-fluoro-4-methoxyphenyl)ethyl)-3-(trans-4-hydroxy-4-methylcyclohexyl)urea], the EC50 worked out at 6.6 nM.

Take `COc1ccc(C[C@@H](NC(=O)N[C@H]2CC[C@H](O)CC2)c2nc3c(F)cccc3[nH]2)cc1` [Example 124, 1-((R)-1-(4-Fluoro-1H-benzo[d]imidazol-2-yl)-2-(4-methoxyphenyl)ethyl)-3-(trans-4-hydroxycyclohexyl)urea]: the concentration giving a half-maximal response (EC50) was 174 nM.

For the compound `COc1ccc(C[C@@H](NC(=O)NC2CCc3cc(OC)c(OC)cc32)c2nc3ccccc3[nH]2)cc1` (stereo partly drawn) [Example 348, 1-((R)-1-(1H-Benzo[d]imidazol-2-yl)-2-(4-methoxyphenyl)ethyl)-3-(5,6-dimethoxy-2,3-dihydro-1H-inden-1-yl)urea], the half-maximal effective concentration (EC50) worked out at 26 nM.

Take `COc1ccc(CC(NC(=O)NCc2cc(C3CC3)on2)c2nc3ccccc3[nH]2)cc1` (stereo not shown) [Example 380, 1-(1-(1H-Benzo[d]imidazol-2-yl)-2-(4-methoxyphenyl)ethyl)-3-((5-cyclopropylisoxazol-3-yl)methyl)urea]: the EC50 came out at 1090 nM.

`COc1ccc(C[C@@H](NC(=O)N2CCC3CN(C(=O)OC(C)(C)C)CC32)c2nc3ccccc3[nH]2)cc1` (stereo partly drawn) [Example 120, tert-Butyl 1-(((R)-1-(1H-benzo[d]imidazol-2-yl)-2-(4-methoxyphenyl)ethyl)carbamoyl)hexahydropyrrolo[3,4-b]pyrrole-5(1H)-carboxylate]: the concentration for a half-maximal effect (EC50) is 57 nM.

Turning to `COc1ccc(C[C@@H](NC(=O)N[C@@H](Cc2ccccc2)C(N)=O)c2nc3ccccc3[nH]2)cc1` [Example 208, (S)-2-(3-((R)-1-(1H-Benzo[d]imidazol-2-yl)-2-(4-methoxyphenyl)ethyl)ureido)-3-phenylpropanamide], the EC50 came out at 21 nM.

Consider `COc1cc(F)c(CC(NC(=O)NC23CCC(O)(CC2)CC3)c2nc3ccc(F)cc3[nH]2)c(F)c1` (single isomer, unassigned; ent-2) [Example 373, 1-(2-(2,6-Difluoro-4-methoxyphenyl)-1-(6-fluoro-1H-benzo[d]imidazol-2-yl)ethyl)-3-(4-hydroxybicyclo[2.2.2]octan-1-yl)urea (ent-2)], for which the concentration for a half-maximal effect (EC50) came out at 107 nM.

Turning to `O=C(NC(Cc1ccc(C(F)(F)F)cc1F)c1nc2ccccc2[nH]1)N[C@H]1CC[C@H](O)CC1` (relative stereo) [Example 240, 1-(1-(1H-Benzo[d]imidazol-2-yl)-2-(2-fluoro-4-(trifluoromethyl)phenyl)ethyl)-3-(trans-4-hydroxycyclohexyl)urea], the EC50 was 12 nM.

For `COc1ccc(CC(NC(=O)N[C@H]2CC[C@](C)(O)CC2)c2nc3ccccc3[nH]2)c(F)c1` (mixture of isomers) [Example 234, 1-(1-(1H-Benzo[d]imidazol-2-yl)-2-(2-fluoro-4-methoxyphenyl)ethyl)-3-(trans-4-hydroxy-4-methylcyclohexyl)urea], the EC50 worked out at 5.1 nM.

In the case of `COc1ccc(C[C@@H](NC(=O)NC2CCN(S(C)(=O)=O)CC2)c2nc3ccccc3[nH]2)cc1` [Example 143, (R)-1-(1-(1H-Benzo[d]imidazol-2-yl)-2-(4-methoxyphenyl)ethyl)-3-(1-(methylsulfonyl)piperidin-4-yl)urea], the EC50 was 108 nM.

Consider `COc1ccc(CC(NC(=O)Nc2ccnn2C(C)(C)C)c2nc3ccccc3[nH]2)cc1` (stereo not shown) [Example 414, 1-(1-(1H-benzo[d]imidazol-2-yl)-2-(4-methoxyphenyl)ethyl)-3-(1-(tert-butyl)-1H-pyrazol-5-yl)urea], for which the half-maximal effective concentration (EC50) is 30 nM.

For `COc1ccc(C[C@@H](NC(=O)NC2(c3ccc(C(F)(F)F)cc3)CC2)c2nc3ccccc3[nH]2)cc1` [Example 358, (R)-1-(1-(1H-Benzo[d]imidazol-2-yl)-2-(4-methoxyphenyl)ethyl)-3-(1-(4-(trifluoromethyl)phenyl)cyclopropyl)urea], the EC50 amounted to 176 nM.

As for `COc1ccc(C[C@@H](NC(=O)NC2CCCc3ccccc32)c2nc3ccccc3[nH]2)cc1` (stereo partly drawn) [Example 27, 1-((R)-1-(1H-Benzo[d]imidazol-2-yl)-2-(4-methoxyphenyl)ethyl)-3-(1,2,3,4-tetrahydronaphthalen-1-yl)urea], the EC50 was determined as 26 nM.

`COc1ccc(C[C@@H](NC(=O)N[C@H](C)c2cccc(Cl)c2)c2nc3ccccc3[nH]2)cc1` [Example 324, 1-((R)-1-(1H-Benzo[d]imidazol-2-yl)-2-(4-methoxyphenyl)ethyl)-3-((R)-1-(3-chlorophenyl)ethyl)urea]: the EC50 amounted to 712 nM.

(Values after patent US9663473B2 (Actelion Pharmaceuticals Ltd, priority 2013, dated 2017).)
